# From US6914045B2, “Glycopeptide antibiotics” (Wyeth Holdings Corporation, priority 2001, dated 2005)
# Tests used:
# Assay in all cases: in vitro antibacterial evaluation, MIC by broth dilution
# Format in all cases: cell-based
# Escherichia coli = settings: 18 hours at 35° C.
# Streptococcus sp. = settings: broth dilution, 18 hours at 35° C.
# Outline: (§1)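 Inoculum 5×10^5 CFU/mL; concentrations 64 to 0.06 μg/mL; MIC defined as lowest inhibitory level. Conducted by broth dilution under NCCLS guidelines.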
# Staphylococcus sp. = settings: broth dilution, 18 hours at 35° C.
# Outline: as §1
# Enterococcus sp. = settings: broth dilution, 18 hours at 35° C.
# Outline: as §1
smiles,measurement,setting,value
Cc1ccc(COCC2OC(OC3C(CO)OC(Oc4ccc(CC5NC(=O)C(C(C)c6ccccc6)NC(=O)CNC(=O)C(CO)NC(=O)C(C(O)C6CNC(=N)N6C6OC(CO)C(O)C(O)C6O)NC(=O)C(C(O)C6CNC(=N)N6)NC5=O)cc4)C(O)C3O)C(O)C(O)C2O)cc1 (stereo not shown) [Example 234],MIC Escherichia coli (ATCC 25922),Escherichia coli,64 µg/mL
same,MIC Escherichia coli (GC 4559),Escherichia coli,64 µg/mL
same,MIC Escherichia coli (GC 4560),Escherichia coli,1 µg/mL
same,MIC Streptococcus agalactiae (GC 4564),Streptococcus sp.,0.5 µg/mL
same,MIC Streptococcus pneumoniae (ATCC 6301),Streptococcus sp.,0.25 µg/mL
same,MIC Streptococcus pneumoniae (GC 1894),Streptococcus sp.,0.12 µg/mL
same,MIC Streptococcus pneumoniae (GC 4565),Streptococcus sp.,0.25 µg/mL
same,MIC Streptococcus pyogenes (GC 4563),Streptococcus sp.,0.5 µg/mL
same,MIC Streptococcus pneumoniae (ATCC 6301),"Streptococcus sp.; inoculum 5×10^5 CFU/mL, strain ATCC 6301",0.25 µg/mL
same,MIC Streptococcus pneumoniae (GC 1894),"Streptococcus sp.; inoculum 5×10^5 CFU/mL, strain GC 1894",0.12 µg/mL
same,MIC Streptococcus pyogenes (GC 4563),"Streptococcus sp.; inoculum 5×10^5 CFU/mL, strain GC 4563",0.5 µg/mL
same,MIC Streptococcus agalactiae (GC 4564),"Streptococcus sp.; inoculum 5×10^5 CFU/mL, strain GC 4564",0.5 µg/mL
same,MIC Streptococcus pneumoniae (GC 4565),"Streptococcus sp.; inoculum 5×10^5 CFU/mL, strain GC 4565",0.25 µg/mL
same,MIC Coagulase Negative Staphylococcus (GC 4547),Staphylococcus sp.,1 µg/mL
same,MIC Coagulase Negative Staphylococcus (GC 4548),Staphylococcus sp.,1 µg/mL
same,MIC Coagulase Negative Staphylococcus (GC 4549),Staphylococcus sp.,0.5 µg/mL
same,MIC Coagulase Negative Staphylococcus (GC 4551),Staphylococcus sp.,2 µg/mL
same,MIC Coagulase Negative Staphylococcus (GC 6257),Staphylococcus sp.,1 µg/mL
same,MIC Staphylococcus aureus (ATCC 29213),Staphylococcus sp.,2 µg/mL
same,MIC Staphylococcus aureus (GC 1131),Staphylococcus sp.,2 µg/mL
same,MIC Staphylococcus aureus (GC 3051),Staphylococcus sp.,2 µg/mL
same,MIC Staphylococcus aureus (GC 3053),Staphylococcus sp.,2 µg/mL
same,MIC Staphylococcus aureus (GC 4541),Staphylococcus sp.,2 µg/mL
same,MIC Staphylococcus aureus (GC 4542),Staphylococcus sp.,2 µg/mL
same,MIC Staphylococcus aureus (GC 4544),Staphylococcus sp.,2 µg/mL
same,MIC Staphylococcus aureus (GC 4545),Staphylococcus sp.,2 µg/mL
same,MIC Staphylococcus aureus-SMITH (GC 4543),Staphylococcus sp.,2 µg/mL
same,MIC Staphylococcus haemolyticus (GC 4546),Staphylococcus sp.,1 µg/mL
same,MIC Staphylococcus aureus (ATCC 29213),Staphylococcus sp.; strain ATCC 29213,2 µg/mL
same,MIC Staphylococcus aureus (GC 1131),Staphylococcus sp.; strain GC 1131,2 µg/mL
same,MIC Staphylococcus aureus (GC 3051),Staphylococcus sp.; strain GC 3051,2 µg/mL
same,MIC Staphylococcus aureus (GC 3053),Staphylococcus sp.; strain GC 3053,2 µg/mL
same,MIC Staphylococcus aureus (GC 4541),Staphylococcus sp.; strain GC 4541,2 µg/mL
same,MIC Staphylococcus aureus (GC 4542),Staphylococcus sp.; strain GC 4542,2 µg/mL
same,MIC Staphylococcus aureus-SMITH (GC 4543),Staphylococcus sp.; strain GC 4543,2 µg/mL
same,MIC Staphylococcus aureus (GC 4544),Staphylococcus sp.; strain GC 4544,2 µg/mL
same,MIC Staphylococcus aureus (GC 4545),Staphylococcus sp.; strain GC 4545,2 µg/mL
same,MIC Staphylococcus haemolyticus (GC 4546),Staphylococcus sp.; strain GC 4546,1 µg/mL
same,MIC Coagulase Negative Staphylococcus (GC 4547),Staphylococcus sp.; strain GC 4547,1 µg/mL
same,MIC Coagulase Negative Staphylococcus (GC 4548),Staphylococcus sp.; strain GC 4548,1 µg/mL
same,MIC Coagulase Negative Staphylococcus (GC 4549),Staphylococcus sp.; strain GC 4549,0.5 µg/mL
same,MIC Coagulase Negative Staphylococcus (GC 4551),Staphylococcus sp.; strain GC 4551,2 µg/mL
same,MIC Coagulase Negative Staphylococcus (GC 6257),Staphylococcus sp.; strain GC 6257,1 µg/mL
same,MIC Enterococcus avium (GC 4558),Enterococcus sp.,8 µg/mL
same,MIC Enterococcus faecalis (ATCC 29212),Enterococcus sp.,8 µg/mL
same,MIC Enterococcus faecalis (GC 2242),Enterococcus sp.,4 µg/mL
same,MIC Enterococcus faecalis (GC 2691),Enterococcus sp.,8 µg/mL
same,MIC Enterococcus faecalis (GC 3059),Enterococcus sp.,8 µg/mL
same,MIC Enterococcus faecalis (GC 4552),Enterococcus sp.,8 µg/mL
same,MIC Enterococcus faecalis (GC 4553),Enterococcus sp.,8 µg/mL
same,MIC Enterococcus faecalis (GC 4554),Enterococcus sp.,8 µg/mL
same,MIC Enterococcus faecalis (GC 6189),Enterococcus sp.,8 µg/mL
same,MIC Enterococcus faecium (GC 2243),Enterococcus sp.,8 µg/mL
same,MIC Enterococcus faecium (GC 4556),Enterococcus sp.,8 µg/mL
same,MIC Enterococcus faecium (GC 4557),Enterococcus sp.,2 µg/mL
same,MIC Enterococcus faecalis (ATCC 29212),Enterococcus sp.; strain ATCC 29212,8 µg/mL
same,MIC Enterococcus faecium (GC 2243),Enterococcus sp.; strain GC 2243,8 µg/mL
same,MIC Enterococcus faecalis (GC 4552),Enterococcus sp.; strain GC 4552,8 µg/mL
same,MIC Enterococcus faecalis (GC 4553),Enterococcus sp.; strain GC 4553,8 µg/mL
same,MIC Enterococcus faecalis (GC 4554),Enterococcus sp.; strain GC 4554,8 µg/mL
same,MIC Enterococcus faecium (GC 4556),Enterococcus sp.; strain GC 4556,8 µg/mL
same,MIC Enterococcus faecium (GC 4557),Enterococcus sp.; strain GC 4557,2 µg/mL
same,MIC Enterococcus avium (GC 4558),Enterococcus sp.; strain GC 4558,8 µg/mL
same,MIC Enterococcus faecalis (GC 6189),Enterococcus sp.; strain GC 6189,8 µg/mL
same,MIC Enterococcus faecalis (GC 2242),"Enterococcus sp.; inoculum 5×10^5 CFU/mL, strain GC 2242",4 µg/mL
same,MIC Enterococcus faecalis (GC 2691),"Enterococcus sp.; inoculum 5×10^5 CFU/mL, strain GC 2691",8 µg/mL
same,MIC Enterococcus faecalis (GC 3059),"Enterococcus sp.; inoculum 5×10^5 CFU/mL, strain GC 3059",8 µg/mL
